# From patent US8211935B2, “Heterocyclic derivatives for modulation of calcium channels” (Vertex Pharmaceuticals Incorporated, priority 2004, dated 2012)
# pIC50: −log10 of the molar value.
# Biological target: T1, CaV2.2 (Homo sapiens, UniProt Q00975)
# T1 construct: expressed in transfected cells; host or cells: HEK293
# Assay: VIPR optical membrane potential assay with electrical stimulation
# Format: cell-based
# Details: Table 3, biological assay data; read-out: IC50
# Method in brief: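 HEK293 cells stably expressing CaV2.2, stained with CC2-DMPE (10 μM final) and oxonol voltage-sensitive dyes, compound added with BaCl2. Membrane potential response evoked by 3-5 s electrical stimulation. Read as background-subtracted 460/580 nm emission ratio, response R=Rf/Ri, normalized to mibefradil positive and no-drug negative controls.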
# T1 sequence (Q00975 whole entry): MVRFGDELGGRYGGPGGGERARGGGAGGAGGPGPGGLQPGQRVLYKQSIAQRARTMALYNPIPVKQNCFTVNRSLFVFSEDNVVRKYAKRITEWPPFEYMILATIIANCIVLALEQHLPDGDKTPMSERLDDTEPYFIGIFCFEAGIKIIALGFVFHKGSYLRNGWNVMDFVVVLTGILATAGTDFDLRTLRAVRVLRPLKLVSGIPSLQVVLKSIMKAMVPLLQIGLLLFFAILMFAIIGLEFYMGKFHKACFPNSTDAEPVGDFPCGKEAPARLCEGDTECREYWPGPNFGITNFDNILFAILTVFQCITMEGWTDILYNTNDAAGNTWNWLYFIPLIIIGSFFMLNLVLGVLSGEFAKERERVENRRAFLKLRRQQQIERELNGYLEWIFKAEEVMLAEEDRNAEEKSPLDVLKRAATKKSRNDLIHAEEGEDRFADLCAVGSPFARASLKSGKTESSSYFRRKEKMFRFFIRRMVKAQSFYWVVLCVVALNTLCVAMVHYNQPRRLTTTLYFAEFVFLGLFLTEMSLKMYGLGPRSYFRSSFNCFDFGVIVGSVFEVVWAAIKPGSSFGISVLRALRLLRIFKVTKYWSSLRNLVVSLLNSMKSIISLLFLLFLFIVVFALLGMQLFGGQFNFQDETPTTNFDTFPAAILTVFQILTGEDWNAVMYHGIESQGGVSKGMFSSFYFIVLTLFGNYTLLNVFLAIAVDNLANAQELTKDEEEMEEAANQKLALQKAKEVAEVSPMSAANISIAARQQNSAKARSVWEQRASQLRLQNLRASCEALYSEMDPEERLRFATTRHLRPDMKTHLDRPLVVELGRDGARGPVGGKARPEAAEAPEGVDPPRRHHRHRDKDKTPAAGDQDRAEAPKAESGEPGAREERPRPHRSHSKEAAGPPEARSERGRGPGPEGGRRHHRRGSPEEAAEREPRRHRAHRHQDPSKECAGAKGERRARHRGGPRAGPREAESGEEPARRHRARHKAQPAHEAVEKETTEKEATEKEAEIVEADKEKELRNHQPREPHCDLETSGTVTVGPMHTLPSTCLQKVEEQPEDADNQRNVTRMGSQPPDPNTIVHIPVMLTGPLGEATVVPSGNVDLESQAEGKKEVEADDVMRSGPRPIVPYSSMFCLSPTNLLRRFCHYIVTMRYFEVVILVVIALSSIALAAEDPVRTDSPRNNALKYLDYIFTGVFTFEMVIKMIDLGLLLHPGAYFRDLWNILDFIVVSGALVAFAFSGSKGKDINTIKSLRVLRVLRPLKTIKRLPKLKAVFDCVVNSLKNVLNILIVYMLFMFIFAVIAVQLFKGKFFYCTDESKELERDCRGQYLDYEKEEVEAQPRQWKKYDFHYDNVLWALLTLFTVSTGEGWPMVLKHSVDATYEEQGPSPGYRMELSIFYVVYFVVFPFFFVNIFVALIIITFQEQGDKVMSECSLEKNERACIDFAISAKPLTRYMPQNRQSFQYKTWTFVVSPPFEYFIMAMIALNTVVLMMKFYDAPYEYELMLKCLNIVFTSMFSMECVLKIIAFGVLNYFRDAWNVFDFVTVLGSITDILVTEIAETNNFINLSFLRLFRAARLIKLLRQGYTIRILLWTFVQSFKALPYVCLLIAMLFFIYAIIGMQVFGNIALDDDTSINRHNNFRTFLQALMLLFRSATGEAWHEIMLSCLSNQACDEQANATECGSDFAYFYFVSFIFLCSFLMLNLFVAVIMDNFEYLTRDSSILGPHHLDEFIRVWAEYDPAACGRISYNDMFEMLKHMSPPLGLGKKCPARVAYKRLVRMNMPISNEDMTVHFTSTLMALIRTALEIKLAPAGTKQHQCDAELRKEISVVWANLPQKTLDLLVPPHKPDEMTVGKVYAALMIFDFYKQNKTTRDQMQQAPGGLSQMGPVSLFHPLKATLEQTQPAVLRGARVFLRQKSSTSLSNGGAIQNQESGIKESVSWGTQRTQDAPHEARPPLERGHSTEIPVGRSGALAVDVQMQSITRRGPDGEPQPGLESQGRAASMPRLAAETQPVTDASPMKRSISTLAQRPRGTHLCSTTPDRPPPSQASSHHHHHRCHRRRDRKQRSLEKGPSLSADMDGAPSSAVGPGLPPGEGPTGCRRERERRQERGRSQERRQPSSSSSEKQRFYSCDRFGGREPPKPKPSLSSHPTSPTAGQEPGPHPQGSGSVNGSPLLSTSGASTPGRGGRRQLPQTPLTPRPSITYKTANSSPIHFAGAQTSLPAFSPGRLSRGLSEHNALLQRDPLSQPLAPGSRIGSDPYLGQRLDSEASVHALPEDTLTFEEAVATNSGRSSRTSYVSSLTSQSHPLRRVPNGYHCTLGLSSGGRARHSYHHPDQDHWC
# T1 sequence (P54284 whole entry partner): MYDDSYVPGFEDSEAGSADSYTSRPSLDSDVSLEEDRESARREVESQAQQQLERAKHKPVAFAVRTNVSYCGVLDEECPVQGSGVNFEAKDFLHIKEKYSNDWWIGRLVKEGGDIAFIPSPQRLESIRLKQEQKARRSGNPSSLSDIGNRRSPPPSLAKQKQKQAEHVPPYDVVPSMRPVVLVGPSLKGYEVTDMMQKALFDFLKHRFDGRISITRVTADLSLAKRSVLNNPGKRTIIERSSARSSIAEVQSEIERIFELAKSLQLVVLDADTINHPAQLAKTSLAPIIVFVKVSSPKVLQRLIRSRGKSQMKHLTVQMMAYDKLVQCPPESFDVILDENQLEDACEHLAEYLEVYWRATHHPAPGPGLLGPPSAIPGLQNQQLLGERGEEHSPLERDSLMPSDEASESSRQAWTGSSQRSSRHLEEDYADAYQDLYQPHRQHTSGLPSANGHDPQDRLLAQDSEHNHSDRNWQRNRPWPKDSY
# T1 sequence (P54289 25-946 partner limits assumed): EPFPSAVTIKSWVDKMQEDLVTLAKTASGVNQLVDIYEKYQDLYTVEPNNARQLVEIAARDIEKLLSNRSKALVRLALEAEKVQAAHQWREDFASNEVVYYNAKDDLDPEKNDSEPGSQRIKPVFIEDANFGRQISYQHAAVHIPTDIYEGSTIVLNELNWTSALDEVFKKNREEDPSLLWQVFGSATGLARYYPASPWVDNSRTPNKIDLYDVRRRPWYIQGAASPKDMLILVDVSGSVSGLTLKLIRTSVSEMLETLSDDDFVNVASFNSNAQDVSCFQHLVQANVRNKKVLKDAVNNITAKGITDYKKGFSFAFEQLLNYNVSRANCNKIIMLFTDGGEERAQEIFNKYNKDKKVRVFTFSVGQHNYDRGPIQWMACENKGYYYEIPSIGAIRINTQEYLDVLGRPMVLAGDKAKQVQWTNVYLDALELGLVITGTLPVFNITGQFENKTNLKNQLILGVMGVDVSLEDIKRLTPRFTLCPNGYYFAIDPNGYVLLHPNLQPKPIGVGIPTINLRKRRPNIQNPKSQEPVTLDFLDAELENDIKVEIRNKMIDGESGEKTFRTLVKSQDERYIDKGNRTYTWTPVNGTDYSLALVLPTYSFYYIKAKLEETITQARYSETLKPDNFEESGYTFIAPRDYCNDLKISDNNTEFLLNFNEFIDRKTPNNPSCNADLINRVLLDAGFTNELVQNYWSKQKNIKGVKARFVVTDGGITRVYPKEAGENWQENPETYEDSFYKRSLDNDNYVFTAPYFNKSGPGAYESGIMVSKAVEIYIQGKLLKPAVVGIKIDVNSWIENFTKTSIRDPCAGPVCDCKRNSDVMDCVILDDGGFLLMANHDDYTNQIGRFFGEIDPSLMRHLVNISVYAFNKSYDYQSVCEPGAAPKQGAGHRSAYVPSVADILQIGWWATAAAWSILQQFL
# T1 sequence (P54289 947-1103 partner limits assumed): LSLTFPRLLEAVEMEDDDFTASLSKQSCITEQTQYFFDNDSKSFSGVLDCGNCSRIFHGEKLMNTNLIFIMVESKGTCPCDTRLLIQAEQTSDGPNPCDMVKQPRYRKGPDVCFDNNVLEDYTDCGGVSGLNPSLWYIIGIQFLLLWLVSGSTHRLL
row,SMILES,pIC50
1,CC1CCN(S(=O)(=O)c2ccc3[nH]c(C(=O)N(C)Cc4ccccc4)cc3c2)CC1 [compound 285],> 5.30
2,CCCN(CC1CC1)C(=O)c1cc2cc(S(=O)(=O)N3CC(C)CC(C)C3)ccc2n1C (centres unmarked) [compound 463],> 5.30
3,CC1CC(C)CN(S(=O)(=O)c2ccc3oc(C(=O)NCC4CCCO4)cc3c2)C1 (centres unmarked) [compound 408],> 5.30
4,Cc1c(C(=O)NCc2ccccn2)oc2ccc(S(=O)(=O)N3CCC(C)CC3)cc12 [compound 203],4.70 to 5.30
5,Cc1c(C(=O)N2CCCC2)[nH]c2ccc(S(=O)(=O)N3CCC(C)CC3)cc12 [compound 457],4.70 to 5.30
6,CCCCN(C)C(=O)c1cc2cc(S(=O)(=O)N3CC(C)CC(C)C3)ccc2o1 (centres unmarked) [compound 229],> 5.30
7,CC1CC(C)CN(S(=O)(=O)c2ccc3[nH]c(C(=O)NC(C)C)cc3c2)C1 (centres unmarked) [compound 274],> 5.30
8,CNC(=O)c1cc2cc(S(=O)(=O)N3CC(C)CC(C)C3)ccc2[nH]1 (centres unmarked) [compound 37],> 5.30
9,Cc1c(C(=O)NCCCN2CCOCC2)oc2ccc(S(=O)(=O)N3CC(C)CC(C)C3)cc12 (centres unmarked) [compound 79],> 5.30
10,CNC(=O)c1oc2ccc(S(=O)(=O)N3CCOCC3)cc2c1C [compound 22],> 4.70
11,CCN(CC)S(=O)(=O)c1ccc2oc(C(=O)NCCCc3ccccc3)c(C)c2c1 [compound 318],4.70 to 5.30
12,O=C(c1cc2cc(S(=O)(=O)N3CCCCCC3)ccc2[nH]1)N1CCCCCC1 [compound 358],4.70 to 5.30
13,Cc1c(C(=O)NC2CC2)oc2ccc(S(=O)(=O)N(CCN(C)C)Cc3ccccc3)cc12 [compound 24],> 4.70
14,Cc1c(C(=O)NC2CCCCC2)oc2ccc(S(=O)(=O)N3CCC4(CC3)OCCO4)cc12 [compound 371],4.70 to 5.30
15,Cc1c(C(=O)NC2CC2)oc2ccc(S(=O)(=O)Nc3cccnc3)cc12 [compound 453],> 4.70
16,Cc1c(C(=O)NC2CC2)oc2ccc(S(=O)(=O)N3CCC(F)(F)CC3)cc12 [compound 35],4.70 to 5.30
17,Cc1c(C(=O)NCC2CCCO2)oc2ccc(S(=O)(=O)N3CCOCC3)cc12 (centres unmarked) [compound 149],> 4.70
18,O=C(NCCC1CCOCC1)c1cc2cc(S(=O)(=O)N3CCCCCC3)ccc2[nH]1 [compound 335],> 5.30
19,CCOC(=O)N1CCN(C(=O)c2[nH]c3ccc(S(=O)(=O)N4CC(C)CC(C)C4)cc3c2C)CC1 (centres unmarked) [compound 439],> 5.30
20,CCN(CC)S(=O)(=O)c1ccc2oc(C(=O)N3CCc4ccccc4C3)c(C)c2c1 [compound 85],> 5.30

row,SMILES,pIC50
1,CC1CCN(S(=O)(=O)c2ccc3oc(C(=O)N4CCN(C)CC4)cc3c2)CC1 [compound 188],4.70 to 5.30
2,Cc1c(C(=O)N2CC(C)OC(C)C2)oc2ccc(S(=O)(=O)N3CCC(C)CC3)cc12 (centres unmarked) [compound 449],4.70 to 5.30
3,Cc1c(C(=O)N2CCCC2)oc2ccc(S(=O)(=O)N3CCOCC3)cc12 [compound 26],> 4.70
4,CCN(CC)C(=O)c1cc2cc(S(=O)(=O)N3CC(C)CC(C)C3)ccc2n1CCCN(C)C (centres unmarked) [compound 230],4.70 to 5.30
5,O=C(NCc1ccccc1)c1cc2cc(S(=O)(=O)N3CCCCCC3)ccc2o1 [compound 34],> 5.30
6,CC1CCN(S(=O)(=O)c2ccc3[nH]c(C(=O)N4CC(C)CC(C)C4)cc3c2)CC1 (centres unmarked) [compound 319],4.70 to 5.30
7,Cc1c(C(=O)N2CCCC(C)C2)oc2ccc(S(=O)(=O)N3CCCCC3)cc12 (centres unmarked) [compound 280],4.70 to 5.30
8,CC1CCCCN1C(=O)c1cc2cc(S(=O)(=O)N3CCCCCC3)ccc2o1 (centres unmarked) [compound 392],4.70 to 5.30
9,CCOC(=O)N1CCN(C(=O)c2[nH]c3ccc(S(=O)(=O)N4CCCCCC4)cc3c2C)CC1 [compound 235],4.70 to 5.30
10,Cc1c(C(=O)NCCCc2ccccc2)[nH]c2ccc(S(=O)(=O)N3CCC(C)CC3)cc12 [compound 223],> 5.30
11,CCCCN(C)C(=O)c1cc2cc(S(=O)(=O)N3CCC(C)CC3)ccc2o1 [compound 83],> 5.30
12,CC1CCN(S(=O)(=O)c2ccc3[nH]c(C(=O)N4CCCCC4C)cc3c2)CC1 (centres unmarked) [compound 436],> 5.30
13,Cc1c(C(=O)NCc2ccccc2)oc2ccc(S(=O)(=O)N3CCCCC3)cc12 [compound 305],4.70 to 5.30
14,Cc1c(C(=O)N2CCC(C)CC2)oc2ccc(S(=O)(=O)N3CCC4(CC3)OCCO4)cc12 [compound 4],4.70 to 5.30
15,Cc1c(C(=O)NCCC2CCOCC2)[nH]c2ccc(S(=O)(=O)N3CC(C)CC(C)C3)cc12 (centres unmarked) [compound 78],4.70 to 5.30
16,Cc1c(C(=O)NC2CCCCC2)[nH]c2ccc(S(=O)(=O)N3CCCCCC3)cc12 [compound 309],> 5.30
17,COc1ccccc1CNC(=O)c1oc2ccc(S(=O)(=O)N3CCOCC3)cc2c1C [compound 167],> 4.70
18,CC1CCN(S(=O)(=O)c2ccc3[nH]c(CN4CCN(C)CC4)cc3c2)CC1 [compound 121],4.70 to 5.30
19,Cc1c(C(=O)N2CCCCCC2)oc2ccc(S(=O)(=O)N3CCC(C)CC3)cc12 [compound 347],4.70 to 5.30
20,COc1ccc(CNS(=O)(=O)c2ccc3oc(C(=O)NC4CC4)c(C)c3c2)cc1 [compound 255],> 4.70

row,SMILES,pIC50
1,Cc1c(C(=O)NC(C)C)oc2ccc(S(=O)(=O)N3CCC(F)CC3)cc12 [compound 157],4.70 to 5.30
2,COc1ccc(NS(=O)(=O)c2ccc3oc(C(=O)NC4CC4)c(C)c3c2)cc1 [compound 115],4.70 to 5.30
3,CCN(CC)S(=O)(=O)c1ccc2oc(C(=O)N3CC(C)CC(C)C3)c(C)c2c1 (centres unmarked) [compound 164],> 5.30
4,CC1CC(C)CN(S(=O)(=O)c2ccc3c(c2)cc(C(=O)N2CCCCC2)n3S(=O)(=O)C(C)C)C1 (centres unmarked) [compound 470],4.70 to 5.30
5,O=C(NCCc1ccccc1)c1cc2cc(S(=O)(=O)N3CCCCCC3)ccc2o1 [compound 48],> 5.30
6,CN1CCN(C(=O)c2cc3cc(S(=O)(=O)N4CCCCCC4)ccc3o2)CC1 [compound 165],4.70 to 5.30
7,CCNC(=O)c1oc2ccc(S(=O)(=O)N3CCC(C)CC3)cc2c1C [compound 256],4.70 to 5.30
8,Cc1c(C(=O)N2CCCCC2C)oc2ccc(S(=O)(=O)N3CC(C)CC(C)C3)cc12 (centres unmarked) [compound 153],> 5.30
9,Cc1c(C(=O)N2CCCCC2C)oc2ccc(S(=O)(=O)N3CCC(C)CC3)cc12 (centres unmarked) [compound 42],> 5.30
10,Cc1c(C(=O)NCC2COc3ccccc3O2)oc2ccc(S(=O)(=O)N(C)C3CCCCC3)cc12 (centres unmarked) [compound 200],4.70 to 5.30
11,CCNC(=O)c1[nH]c2ccc(S(=O)(=O)N3CCC(C)CC3)cc2c1C [compound 301],4.70 to 5.30
12,CCNC(=O)c1oc2ccc(S(=O)(=O)N(CC)CC)cc2c1C [compound 444],> 4.70
13,COc1ccccc1CNC(=O)c1oc2ccc(S(=O)(=O)N3CCCCCC3)cc2c1C [compound 245],4.70 to 5.30
14,Cc1c(C(=O)NCc2ccc(F)cc2)oc2ccc(S(=O)(=O)N3CCC(C)CC3)cc12 [compound 154],4.70 to 5.30
15,Cc1c(C(=O)N2CC(C)CC(C)C2)oc2ccc(S(=O)(=O)N3CCC(C)CC3)cc12 (centres unmarked) [compound 33],4.70 to 5.30
16,Cc1c(C(=O)NCCC2CCOCC2)oc2ccc(S(=O)(=O)N3CC(C)CC(C)C3)cc12 (centres unmarked) [compound 6],> 5.30
17,CS(=O)(=O)Nc1ccc2[nH]c(C(=O)NC3CC3)cc2c1 [compound 286],> 4.70
18,Cc1c(C(=O)NC2CCCCC2)oc2ccc(S(=O)(=O)N3CCC(C)CC3)cc12 [compound 465],4.70 to 5.30
19,O=C(NCCC1CCOCC1)c1cc2cc(S(=O)(=O)N3CCCCCC3)ccc2o1 [compound 23],> 5.30
